Assay results as given in PMC9080489, “Synthesis and biological evaluation of 2-aryl-benzimidazole derivatives of dehydroabietic acid as novel tubulin polymerization inhibitors” (RSC Advances, 2018).

Key:
Porcine brain tubulin = molecular target: T1, Porcine brain tubulin (Sus scrofa, UniProt P02550+P02554); assay: In vitro tubulin polymerization inhibition assay (OD340); assay type: biochemical; settings: 37 °C, 1 h, versus blank control
T1 construct: purchased Cytoskeleton, Inc. BK004P; host or cells: porcine brain tissue
Method: The in vitro tubulin polymerization inhibition assay was carried out by using the Tubulin Polymerization Assay Kit (Cytoskeleton, Inc., USA) according to the protocol in the manual. Porcine brain tubulin was incubated with compound 6j at concentrations of 5 and 10 μM. The positive control colchicine and negative control taxol were co-assayed at the concentration of 10 μM, and G-PEM buffer was used as the blank control.
The tubulin polymerization assay was accomplished using a commercial assay kit (cat. #BK004P) purchased from Cytoskeleton, Inc. (Danvers, MA, USA). Tubulin isolated from porcine brain tissue was used in this tubulin polymerization assay kit. Tubulin polymerizations are followed by an increase in optical density at 340 nm (OD340) over a 60 min period at 37 °C due to the light scattered by microtubule polymer. At first, tubulin (4 mg) was disovled in 1 mL of G-PEM buffer containing 80 mM piperazine-N,N′-bis(2-ethanesulfonic acid) sequisodium salt (PIPES, pH 6.9), 2.0 mM MgCl2, 0.5 mM EGTA and 1 mM GTP to prepare tubulin solution. Subsequently, 10 μL of 10 × stock solutions of the tested compounds at different concentrations were added to a prewarmed 96-well plate and incubated at 37 °C for 2 min, then 90 μL of tubulin solution was also added into each well to initiate the reaction. The optical intensity (OD340) of each well was recorded every 60 s for 60 min (Cytation 3 Cell Imaging Multi-Mode Reader, BioTek Instruments, Inc., USA). Colchicine and taxol were co-assayed as the positive control and negative control, respectively. G-PEM buffer was used as the blank control.

[1] = test system: human breast cancer cell line (MDA-MB-231); assay: MTT cytotoxic assay, MDA-MB-231; assay type: cell-based; settings: MDA-MB-231, MTT, 48 h exposure, read-out: IC50 MDA-MB-231
Method: The in vitro antiproliferative activity of DAA derivatives (1–5, 6a–k, 7a–k) were evaluated by MTT assay against human hepatocarcinoma cell line (SMMC-7721), human breast cancer cell line (MDA-MB-231), human cervical carcinoma cell line (HeLa), mouse colon cancer cell line (CT-26) and human normal hepatocyte cell line (QSG-7701). Nocodazole was co-assayed as the positive control and DMEM culture medium containing 0.1% DMSO was used as negative control. The results of the tested compounds expressed as IC50 values (concentration required to inhibit tumor cell proliferation by 50%) were presented in Table 1.
The human hepatocarcinoma cell line (SMMC-7721), human breast cancer cell line (MDA-MB-231), human cervical carcinoma cell line (HeLa), mouse colon cancer cell line (CT-26) and human normal hepatocyte cells (QSG-7701) used in this study were all obtained from Keygene Biotech., China. These cell lines were maintained in DMEM medium supplemented with 10% heat-inactivated fetal bovine serum in a humidified atmosphere of 5% CO2 at 37 °C.
The in vitro cytotoxic activities of the benzimidazole derivatives of dehydroabietic acid were evaluated against tested cell lines via the MTT colorimetric method. Briefly, different tumor cells were grown in DMEM medium supplemented with 10% fetal bovine serum, penicillin (100 U mL^−1), and streptomycin (50 μg mL^−1). Cells were harvested at log phase of growth and seeded in 96-well plates (100 μL per well at a density of 2 × 10^5 cells mL^−1). After 24 h incubation at 37 °C and 5% CO2 to allow cell attachment, cultures were exposed to various concentrations of the isolated compounds for 48 h. Finally, MTT solution (2.5 mg mL^−1 in PBS) was added (40 μL per well). Plates were further incubated for 4 h at 37 °C, and the formazan crystals formed were dissolved by adding 150 μL per well of DMSO. Absorption at 570 nm was measured with an ELISA plate reader. The results were expressed as IC50 values with standard deviations, which was defined as the concentration at which 50% survival of cells was discerned. Nocodazole was co-assayed as positive control.

SMMC-7721 cells [2] = assay: Wound healing assay (cell migration); assay type: cell-based, human; settings: 0.2 and 0.5 μM, up to 48 h
Excerpt: Metastasis is a multistep process involving cancer cell motility and invasion which represents a key difficulty for cancer therapy. Thus, the inhibition of metastasis is vital for efficient cancer treatment. Microtubule plays an important role in cell motility and migration. As compound 6j inhibits tubulin polymerization, the capacity of migration inhibition was also investigated through wound healing assay.[45] In this assay, standard scratches (wounds) were made in confluent monolayers of SMMC-7721 cells and incubated with different concentrations (0, 0.1, 0.2 and 0.5 μM) of compound 6j. The migration of SMMC-7721 cells was recorded by microscopic observations at 0, 24 and 48 h.
SMMC-7721 cells (5 × 10^5 cells per well) were grown in a 12-well plate for 24 h. Scratches were made in confluent monolayers using 200 μL pipette tip. Then, wounds were washed twice with PBS to remove non-adherent cell debris. The media containing different concentrations (0, 0.1, 0.2 and 0.5 μM) of compound 6j were added to the corresponding wells. Cells which migrated across the wound area were photographed under the phase contrast microscope (Olympus 1X71 Inverted System Microscope, Olympus, Japan) after 24 and 48 h treatment.

SMMC-7721 cells [3] = assay: Cell cycle analysis (PI staining, flow cytometry); assay type: cell-based, human; settings: 24 h; for percentage of cells in G2/M phase: control 8.86%; for percentage of cells in S phase: control 25.21%; for percentage of cells in G0/G1 phase: control 65.93%
Method: Flow cytometry was used to analyze the effects of the DAA derivative on cell growth and division. SMMC-7721 cells were treated with different concentrations of compound 6j (0, 0.1, 0.2 and 0.5 μM) for 24 h. Cell cycle distribution was investigated by flow cytometric analysis after staining the DNA of the treated cells with propidium iodide (PI).
For the flow cytometric analysis of the DNA content, SMMC-7721 cells were seeded in 6-well plates (5 × 10^5 cells per well) and incubated in the absence or presence of compound 6j at indicated concentrations for 24 h. After treatment, cells were detached with 0.25% trypsin, harvested by centrifugation, washed twice with ice-cold PBS and then fixed and permeabilized with ice-cold ethanol at 4 °C overnight. Ethanol was removed by centrifugation, and the cells were washed twice and resuspended in ice-cold PBS. After this, the cells were treated with 100 μL of 100 μg mL^−1 RNAse A at 37 °C for 30 min, followed by incubation with 400 μL of 1 mg mL^−1 DNA staining solution propidium iodide (PI) in the dark at 4 °C for 30 min. The samples were then analyzed for their DNA content by flow cytometry (Becton-Dickinson FACSCalibur, New York, USA).

T1 sequence (P02554 whole entry): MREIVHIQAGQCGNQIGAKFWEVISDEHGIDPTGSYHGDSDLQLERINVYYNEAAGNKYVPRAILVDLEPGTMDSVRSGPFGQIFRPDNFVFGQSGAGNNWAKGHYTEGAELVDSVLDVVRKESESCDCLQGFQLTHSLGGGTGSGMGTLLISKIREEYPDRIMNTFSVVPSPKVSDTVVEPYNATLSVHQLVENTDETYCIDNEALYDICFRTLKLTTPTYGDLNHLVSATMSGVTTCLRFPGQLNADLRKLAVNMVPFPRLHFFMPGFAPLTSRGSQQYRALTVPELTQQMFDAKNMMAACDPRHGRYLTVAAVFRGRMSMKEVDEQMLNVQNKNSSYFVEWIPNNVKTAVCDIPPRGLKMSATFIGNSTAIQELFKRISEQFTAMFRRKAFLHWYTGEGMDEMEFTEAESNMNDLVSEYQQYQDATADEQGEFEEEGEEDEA
T1 sequence (P02550 whole entry): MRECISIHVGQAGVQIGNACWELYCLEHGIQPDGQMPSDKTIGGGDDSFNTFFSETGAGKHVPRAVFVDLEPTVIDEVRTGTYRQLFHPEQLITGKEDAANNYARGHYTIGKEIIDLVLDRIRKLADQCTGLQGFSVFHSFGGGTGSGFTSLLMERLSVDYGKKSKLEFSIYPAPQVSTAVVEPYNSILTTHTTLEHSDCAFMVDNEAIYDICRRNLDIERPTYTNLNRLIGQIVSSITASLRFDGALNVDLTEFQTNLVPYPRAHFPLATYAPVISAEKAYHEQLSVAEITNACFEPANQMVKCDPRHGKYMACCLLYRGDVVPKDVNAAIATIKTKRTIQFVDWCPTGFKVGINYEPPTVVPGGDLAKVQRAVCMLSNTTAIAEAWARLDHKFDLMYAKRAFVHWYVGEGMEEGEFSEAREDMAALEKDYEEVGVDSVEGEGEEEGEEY

For `COC(=O)[C@]1(C)CCC[C@]2(C)c3cc(Br)c4nc(-c5ccc6[nH]ccc6c5)[nH]c4c3CCC12` (some centres unmarked) [Compound 6j, Methyl 2′-(1H-indol-5-yl)-12-bromo-13,14-imidazolyl-deisopropyl-dehydroabietate], the “effect on tubulin polymerization speed and final absorbance (OD340)” value (Porcine brain tubulin; 10 μM) was “stronger than colchicine”, the “effect on tubulin polymerization speed and final absorbance (OD340)” value (Porcine brain tubulin; 5 and 10 μM) was “substantially decreased the polymerization speed and the final absorbance in a dose-dependent manner” and the IC50 [1] was 190 ± 40 nM. The “wound healing (cell migration)” value (SMMC-7721 cells [2]) was “healing was strongly suppressed”, the melting point was 179 to 181 °C and the “percentage of cells in G2/M phase” value (SMMC-7721 cells [3]; 0.1 μM) was 13.65%. For the same compound, the “percentage of cells in S phase” value (SMMC-7721 cells [3]; 0.1 μM) was 29.52%, the “percentage of cells in G0/G1 phase” value (SMMC-7721 cells [3]; 0.1 μM) was 56.83% and the “percentage of cells in G2/M phase” value (SMMC-7721 cells [3]; 0.2 μM) was 18.37%. For the same compound, the “percentage of cells in S phase” value (SMMC-7721 cells [3]; 0.2 μM) was 29.34%, the “percentage of cells in G0/G1 phase” value (SMMC-7721 cells [3]; 0.2 μM) was 52.28% and the “percentage of cells in G2/M phase” value (SMMC-7721 cells [3]; 0.5 μM) was 26.42%. The “percentage of cells in S phase” value (SMMC-7721 cells [3]; 0.5 μM) was 24.27% and the “percentage of cells in G0/G1 phase” value (SMMC-7721 cells [3]; 0.5 μM) was 49.30%.
